From article PMC11325555, “Interaction of Bisphenol A and Its Analogs with Estrogen and Androgen Receptor from Atlantic Cod (Gadus morhua)” (Environmental Science & Technology, 2024)

Experiments:
[1] = target: T1, Atlantic cod estrogen receptor alpha (gmEra) LBD (Gadus morhua, UniProt U5ILH7); test: Luciferase reporter gene assay, gmEra agonism (estrogenic activity) in transfected COS-7 cells; details: luciferase reporter gene assay
T1 sequence (U5ILH7 170-455): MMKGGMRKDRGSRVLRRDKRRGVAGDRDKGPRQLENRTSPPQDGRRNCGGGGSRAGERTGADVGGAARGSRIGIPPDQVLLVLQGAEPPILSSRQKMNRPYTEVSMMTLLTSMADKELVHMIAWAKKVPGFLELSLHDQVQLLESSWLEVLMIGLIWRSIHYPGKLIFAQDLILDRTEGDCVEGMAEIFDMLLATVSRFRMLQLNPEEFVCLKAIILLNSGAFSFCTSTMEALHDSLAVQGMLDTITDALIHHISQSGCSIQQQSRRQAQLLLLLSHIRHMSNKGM
Procedure: (§1) Ligand activation of gmEra and gmAra was studied with a luciferase reporter gene assay in COS-7 cells transiently transfected with the pCMX-GAL4(DBD)-gmEra(LBD) or pCMX-GAL4(DBD)-gmAra(LBD) plasmid by using the TransIT-LT1 reagent (TransIT-LT1 Transfection Reagent, Mirus). Cells were seeded into 96-well plates (5000 cells/well) and incubated for 24 h before cotransfection with the plasmid mixture (100 ng/well). The plasmid mixture contained GAL4-UAS luciferase reporter plasmid (tk-(MH100)x4 luc), the pCMX-GAL4(DBD)-gmEra(LBD) or pCMX-GAL4(DBD)-gmAra(LBD) receptor plasmids (2:1 reporter:receptor plasmid mass ratio), and a plasmid constitutively producing the β-galactosidase enzyme used for normalization of transfection efficiency (pCMV- β-Gal). […] The maximum DMSO/methanol concentrations in the exposure wells were 0.5% (v/v) in DMEM medium without phenol red (Sigma-Aldrich). After exposure, cells were lysed, and luciferase and beta-galactosidase activities were measured as luminescence and absorbance (420 nm) after the addition of luciferin and ONPG substrates, respectively, using an Enspire Multimode plate reader (PerkinElmer, Waltham, Massachusetts, USA).
Luciferase reporter gene assays were established with COS-7 cells transiently producing the LBD of gmEra (Figure S1) for evaluating the estrogenic potential of 12 bisphenols.
COS-7 cells transiently transfected with gmEra-LBD were exposed to EE2 (open circles), BPA (black circles), and 11 different BPA analogs (red squares and as indicated) at increasing concentrations. Responses are presented as mean fold activation in luciferase activity in comparison to solvent-exposed cells ± SEM from three independent experiments with three technical replicates (n = 9). The dose–response curves were created using nonlinear regression and the four parameter logistic fit in Graphpad Prism v.9. For comparison, the dose–response curve of BPA (black line) is indicated together with each individual BP tested (red line). *p < 0.05 versus solvent control by one-way ANOVA and Dunnett’s multiple comparison post hoc test.

COS-7 cells = test: Cytotoxicity toward COS-7 cells (resazurin and CFDA-AM assays); details: antiandrogenic reporter assay conditions (with testosterone); highest concentration used; 24 h
Text: The cytotoxicity of the test compounds toward COS-7 cells was monitored by measuring the metabolic activity and membrane integrity through the conversion of resazurin and 5-carboxyfluorescein diacetate acetoxymethyl ester (CFDA-AM), respectively, as described previously by Pérez-Albaladejo et al.[54] […]
used as a negative control.
Figure S2. Assessing metabolic activity (resazurin) and cell membrane integrity (CFDA-AM) in COS-7 cells after BP exposures. COS-7 cells were exposed to three concentrations of each BP, as well as three concentrations […]
exposed at 37 °C and 5 % CO2 for 24 hours. Cytotoxicity is indicated by a reduction in the fluorescent signal (denoted as % Cell survival) relative to the solvent control (DMSO, dotted line) adjusted to 100 %. A reduction in cell viability exceeding 20 % is generally regarded as cytotoxic (indicated with a red dotted line) (ISO, I. 2009.
10993–5: 2009 Biological evaluation of medical devices—part 5: tests for in vitro cytotoxicity. International Organization for Standardization, Geneva.).
(1 picture or pasted object on this page, not shown here)

[2] = target: T2, Atlantic cod androgen receptor alpha (gmAra) LBD (Gadus morhua, UniProt D5FIC7); test: Luciferase reporter gene assay, gmAra antagonism (antiandrogenic activity), coexposure with 5 nM testosterone; type: cell-based; details: BPs 0.003–50 μM with 5 nM testosterone
T2 sequence (D5FIC7 409-718): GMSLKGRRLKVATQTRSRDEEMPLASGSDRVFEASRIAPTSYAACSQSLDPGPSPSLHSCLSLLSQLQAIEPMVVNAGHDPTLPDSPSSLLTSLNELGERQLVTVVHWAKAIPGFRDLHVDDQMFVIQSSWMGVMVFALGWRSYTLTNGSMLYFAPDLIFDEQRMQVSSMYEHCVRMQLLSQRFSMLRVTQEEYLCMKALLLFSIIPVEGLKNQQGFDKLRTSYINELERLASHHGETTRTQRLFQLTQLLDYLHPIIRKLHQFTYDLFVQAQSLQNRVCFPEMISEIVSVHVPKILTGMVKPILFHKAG
Procedure: as §1
The dose–response curves were created using nonlinear regression and the four-parameter logistic fit in Graphpad Prism v.9. *p < 0.05 versus solvent control by ANOVA and Dunnett’s multiple comparison post hoc test.

[3] = system: Atlantic cod precision-cut liver slices (PCLS); test: PCLS viability, lactate dehydrogenase (LDH) assay; type: cell-based, Atlantic cod (Gadus morhua); details: 1µM; 96 h exposure
Procedure: To monitor the viability of the liver tissue, the release of LDH to the medium was quantified with an LDH Cytotoxicity Detection kit (Roche, Basel, Switzerland) according to the manufacturer’s protocol. Briefly, 50 μL of PCLS medium collected at the end of 96 h exposure was pipetted in triplicates into a clear 96-well plate, 50 μL of provided reagent mixture with the substrate was added, and the mixture was incubated for 10 min at room temperature in the dark. Absorbance was measured at 490 nm using an EnSpire plate reader (PerkinElmer, Waltham, USA), with 650 nm reference measurement. The LDH activity was normalized to the liver tissue weight, and statistical analysis was performed as described above for the ELISA data.
Figure S3. Assessment of PCLS tissue viability in BP-treated and DMSO control groups. Data points represent mean ± SD of fold-changes (normalized to DMSO) in LDH activity (in the culture medium) per mg of tissue (n = 5-6). For each compound, increasing concentrations used are arranged bottom up vertically (y-axis), […]
starting with DMSO control. […]
in comparisons between the different concentrations and the corresponding DMSO control. One treatment group […]
Figure S4. Sequence alignment of ligand binding domain of gmEra and hsERa. Alignment was constructed in Jalview using Clustal with default settings. […]

Compound | gmEra activation, result in words [1] | cytotoxic concentration in COS-7 cells (COS-7 cells) [µM] | effect on testosterone-mediated gmAra activity, result in words [2] | LDH activity in PCLS culture medium vs DMSO control, result in words [3]
CC(C)(c1ccc(OCC2CO2)cc1)c1ccc(OCC2CO2)cc1 (centres unmarked) [BADGE] | did not activate gmEra | 50 |  | 
Oc1ccc(C2(c3ccc(O)cc3)c3ccccc3-c3ccccc32)cc1 [BPFL] | did not activate gmEra |  | significant increases in gmAr activity | significantly lower LDH activity
